Laboratory results: patent US10016409B2, “Method for improving interstitial flow” (priority 2012, dated 2018)

Test system: MCI patients
Assay: Clinical record analysis, MMSE change in MCI patients (MMSE 22 to 26) under donepezil hydrochloride oral administration
Type: in vivo, human
Conditions: additional oral cilostazol in MCI patients under donepezil hydrochloride
From the text: Patients subjected to oral administration of donepezil hydrochloride, having an observation period of one or more years before the MMSE test date, and having first MMSE scores less than or equal to 26 were picked up from a clinical record. Among the patients, patients recorded to have been consecutively administered with cilostazol for 6 months or more in the observation period were classified as a donepezil hydrochloride and cilostazol combined use group (69 cases), and patients recorded to have experienced no cilostazol oral administration were classified as a donepezil hydrochloride single use group (87 cases). Cilostazol was oral-administered at a dosage of 50 to 200 mg/day in the morning and evening, and donepezil hydrochloride was administered at a dosage of 5 mg/day once in a day. Among the patients, patients with MMSE scores greater than or equal to 22 and less than or equal to 26 were extracted as an MCI patient group. Then, 36 cases (16 males and 20 females, average age: 78.4 years old) of the donepezil hydrochloride single use group (hereinafter referred to as a single use group) and 34 cases (15 males and 19 females, average age: 77.2 years old) of the donepezil hydrochloride and cilostazol combined use group (hereinafter referred to as combined use group) were found. The average dosage of cilostazol in the combined use group was 121 mg/day. […] Measurement of MMSE was conducted at least twice in the observation period, and the first and last test results were selected for analysis.

In the case of `O=C1CCc2cc(OCCCCc3nnnn3C3CCCCC3)ccc2N1` [cilostazol, 6-[4-(1-cyclohexyl-1H-tetrazole-5-yl)butoxy]3,4-dihydrocarbostyril], the “reduction of the annual decrease rate of MMSE scores” value is reported as “about 80%”.
